Results reported in patent US7713690B1, “Luminous bacteria and methods for the isolation, identification and quantitation of toxicants” (priority 1991, dated 2010).

Legend:
[1] = system: Vibrio fischeri; assay: Metals spotted on chromatography paper sheet, dried, exposed to luminescent bacteria; assay type: cell-based; conditions: no chromatography separation
Excerpt: Upon spotting of the various metals along one side of a chromatography paper sheet, the sample spots were allowed to dry. Upon drying, the spotted sheets were exposed to the luminescent bacteria Vibrio fischeri.

[2] = system: Vibrio fischeri; assay: Inhibition of luminescence of luminescent bacteria (general statements); assay type: cell-based

Molecule | visualization of heavy metal salts by luminescent bacteria [1] | inhibition of luminescence of Vibrio fischeri [2]
[Cd] [cadmium] | able to visualize the presence | –
[Ca+2] [calcium ion] | – | Neither does the luminescence of the Vibrio fischeri appear to be immediately inhibited
lead | able to visualize the presence | –
mercury | able to visualize the presence | –
